Experimental data: patent US11253497B2, “Use of derivatives of polyunsaturated fatty acids as medicaments” (Lipopharma Therapeutics, S.L., priority 2009, dated 2022)

Key:
[1] = system: Spontaneously Hypertensive Rats (SHR); assay: Blood pressure of SHR rats (cuff-tail method); type: in vivo, rat; details: 200 mg/kg day p.o., 30 days, before treatment 214 mmHg
Protocol: (§1) In a separate experimental series, it was studied the effect of D-PUFA molecules of the present invention on blood pressure of SHR rats. In these animals both, blood pressure and levels of apolipoprotein AI (apoA-I) were measured. For these experiments Spontaneously Hypertensive Rats (SHR) were treated for 30 days with vehicle (water control) or compounds of the invention (200 mg/kg day, p.o.). At the end of this period, the animals' blood pressure and serum levels of apoA-I were measured. […] For these experiments, non-invasive methods for determining blood pressure (cuff-tail method) and gene expression for apoA-I (RT-PCR) described in the literature (Terés et al., 2008) were used. The usefulness of the molecules of the present invention for the treatment of cardiovascular diseases is reinforced by its capacity for reducing the levels of serum cholesterol and triglycerides (see below).
(§2) The average values of SHR before treatment were 214 mmHg and 100% respectively.

[2] = system: lung cancer cells A549; assay: Growth of lung cancer cells A549 (IC50); type: cell-based, human; details: 72 hours of incubation
Protocol: (§3) For the experiments shown in FIG. 1, cultured human Non Small Cell Lung Cancer cells (A549) in RPMI 1640 were used, supplemented with 10% foetal bovine serum and antibiotics, at 37° C. and 5% CO2. […] After treatment, cell count was performed and the study of the mechanisms involved in the antitumor activity of compounds was evaluated by flow cytometry. […] These values correspond to averages of three independent experiments.
(§4) These charts show the antitumor efficacy of the compounds of this invention against the growth of breast cancer cells, brain (glioma), and lung cancer. […] The other experimental conditions are identical to those described in the preceding paragraph.

[3] = Serum cholesterol, triglycerides and glucose in SHR rats (colorimetric); type: in vivo, rat; details: 200 mg/kg daily p.o., 28 days, untreated rats 100%
Protocol: In a separate experimental series, SHR rats were treated with various compounds of the present invention (200 mg/kg daily, 28 days, p.o.) and the levels of cholesterol, triglycerides and glucose in serum were measured by colorimetric methods. It was observed that these compounds induce significant (and in many cases marked) reductions in the levels of these metabolites (Table 16).
Values are expressed as percent, and in untreated (control) rats values were always considered as 100%.

[4] = system: apolipoprotein AI (apoA-I); assay: Levels of apoA-I in SHR rats (RT-PCR); type: in vivo, rat; details: 200 mg/kg day p.o., 30 days, before treatment 100%
Protocol: as §1, §2

[5] = system: breast cancer cells MDA-MB-231; assay: Growth of breast cancer cells MDA-MB-231; type: cell-based; details: 72 hours of incubation
Protocol: as §3, §4

[6] = system: brain cancer cell (glioma) U118; assay: Brain cancer (glioma) U118 cell growth; type: cell-based; details: 72 hours of incubation
Protocol: For the experiments shown in FIG. 1, cultured human Non Small Cell Lung Cancer cells (A549) in RPMI 1640 were used, supplemented with 10% foetal bovine serum and antibiotics, at 37° C. and 5% CO2. Cells were maintained in culture for 48 hours in the presence or absence of D-PUFAs and PUFAs indicated in Table 2 at a concentration of 250 µM. After treatment, cell count was performed and the study of the mechanisms involved in the antitumor activity of compounds was evaluated by flow cytometry. […] These values correspond to averages of three independent experiments.
as §4

Row | Compound | IC50 [2] [µM] | IC50 [5] [µM] | IC50 [6] [µM] | Blood pressure [1] [mm Hg] | Cholesterol in serum (top number) [3] [%] | Glucose in serum (bottom number) [3] [%] | Triglycerides in serum (central number) [3] [%] | Levels of apoA-I [4] [%]
1 | CCCCCC=CCC=CCCCCCCC(C)C(=O)OCC (stereo not shown) [182N1] | 329 | 297 | 247 | 187 | 92 | 90 | 93 | 159
2 | CCC=CCC=CCC=CCCCCCCC(C)C(=O)OCC (stereo not shown) [183N1] | 379 | 278 | 324 | 208 | 72 | 84 | 69 | 189
3 | CCCCCC=CCC=CCC=CCC=CCCC(CO)C(=O)O (stereo not shown) [204P1] | 387 | 370 | 291 | 203 |  |  |  | 153
4 | CCC=CCC=CCC=CCC=CCC=CCCC(C)C(=O)OCC (stereo not shown) [205N1] | 384 | 289 | 513 | 189 | 80 | 86 | 73 | 293
5 | CCC=CCC=CCC=CCC=CCC=CCCC(CO)C(=O)O (stereo not shown) [205P1] | 339 | 301 | 432 | 194 |  |  |  | 337
6 | CCC=CCC=CCC=CCC=CCC=CCC=CCC(CO)C(=O)O (stereo not shown) [226P1] | 291 | 250 | 290 | 193 |  |  |  | 382

Second part, led by results:

Row | IC50 [2] [µM] | IC50 [5] [µM] | IC50 [6] [µM] | Compound | Blood pressure [1] [mm Hg] | Cholesterol in serum (top number) [3] [%] | Glucose in serum (bottom number) [3] [%] | Triglycerides in serum (central number) [3] [%] | Levels of apoA-I [4] [%]
7 | 255 | 186 | 385 | CCCCCC=CCC=CCC=CCCCC(C)C(=O)OCC (stereo not shown) [183N2] | 194 | 89 | 92 | 85 | 296
8 | 420 | 274 | 315 | CCCCCC=CCC=CCC=CCC=CCCC(C)C(=O)OCC (stereo not shown) [204N1] | 201 | 82 | 82 | 81 | 174
